Data as given in patent US6140354A, “N-substituted aminotetralins as ligands for the neuropeptide Y Y5 receptor useful in the treatment of obesity and other disorders” (Ortho-McNeil Pharmaceutical, Inc., priority 1999, dated 2000).

The molecules below were run against T1, human neuropeptide Y5 receptor (Homo sapiens, UniProt Q15761) (assay: NPY5 HTS Centrifugation Assay: competition with 125I-PYY for binding to NPY5-transfected HEK293 cell membranes). Conditions: 80 pM 125I-PYY, 1 hr room temperature, read-out: % Inh @ 3 uM (% Inhibition of ^125 I-PYY Binding).
T1 construct: expressed in transfected cells
T1 sequence (Q15761 1-445): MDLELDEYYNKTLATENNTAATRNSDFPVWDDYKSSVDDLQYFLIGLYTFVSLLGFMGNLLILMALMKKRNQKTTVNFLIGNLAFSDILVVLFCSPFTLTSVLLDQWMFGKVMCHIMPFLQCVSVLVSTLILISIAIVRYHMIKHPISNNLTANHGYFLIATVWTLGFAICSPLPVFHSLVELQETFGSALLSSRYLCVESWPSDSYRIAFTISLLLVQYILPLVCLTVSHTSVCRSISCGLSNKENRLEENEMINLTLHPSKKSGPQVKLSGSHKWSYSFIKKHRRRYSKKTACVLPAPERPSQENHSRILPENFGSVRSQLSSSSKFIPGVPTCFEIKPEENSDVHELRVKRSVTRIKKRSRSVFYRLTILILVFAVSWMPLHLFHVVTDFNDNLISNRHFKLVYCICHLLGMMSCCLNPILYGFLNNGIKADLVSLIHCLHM
Protocol: The compounds described in this invention were evaluated for binding to the human neuropeptide Y5 receptor.
The human NPY5 receptor cDNA (Genbank Accession number U66275) was inserted into the vector pClneo (Invitrogen) and transfected into human embryonic kidney cells (HEK-293) via Calcium phosphate method (Cullen 1987). Stably transfected cells were selected with G-418 (600 ug/mL). Stably transfected cells served as the source for the membranes for the NPY5 receptor binding assay.
NPY5-transfected HEK293 cells were grown to confluence in 150 cm^2 culture dishes. Cells were washed once with phosphate-buffered saline (Gibco Cat#14040-133). Cells were then incubated in phosphate-buffered saline without Calcium and without Magnesium, supplemented with 2 mM EDTA. Cells were incubated for 10 minutes at room temperature and the cells were collected by repetitive pipeting. Cells were formed into pellets and then frozen at -80 until needed. Frozen pellets were homogenized with a polytron at full speed for 12 seconds in a homogenization buffer (20 mM Tris HCl, 5 mM EDTA, pH 7.4). Homogenates were centrifuged for 5 minutes at 4C at 200 g. Supernatants were transferred to corex tubes and centrifuged for 25 minutes at 28,000 g. Pellets were re-suspended in Binding (20 mM HEPES, 10 mM NaCl, 0.22 mM KH2 PO4, 1.3 mM CaCl2, 0.8 mM MgSO4, pH 7.4). Membranes were kept on ice until use.
A competition binding assay, known to those skilled in the art, was used in which aminotetralins (I) compete with ^125 I-PYY for binding to cell membranes. In simple terms, the less ^125 I-PYY bound to the membranes implies that a compound is a good inhibitor (competitor). Bound ^125 I-PYY is determined by centrifugation of membranes, aspirating supernatant, washing away residual ^125 I-PYY and subsequently counting the bound sample in a g-counter.
Compounds to be tested were prepared as 10× stocks in binding buffer and added first to assay tubes (RIA vials, Sarstedt). Twenty (20) μL of each 10× compound stock is pipeted into vials and 80 μL of ^125 I-PYY (NEN catalog number NEX240), which has been diluted to a concentration of 200 pM in 0.25% BSA in binding buffer, is added to the compound tubes (final concentration of ^125 I-PYY is 80 pM). To each tube is added 100 μL of membranes and the mixture is agitated by pipeting 2 times. Samples are incubated for 1 hr at room temperature. Aluminum cast plates (Sarstedt) containing the vials are then centrifuged 10 minutes at 3200 rpm in a Sorvall RT6000. Supernatant is then aspirated. To each vial 400 μL PBS is added and this is then aspirated again. Vials are then put in carrier polypropylene 12×75 tube and counted in gamma counter (Packard). Non-specific binding is determined in the presence of 300 nM NPY. Percent inhibition of ^125 I-PYY binding is calculated by subtracting non-specific binding from the test samples (compound (I)), taking these counts and dividing by total binding, and multiplying by 100. Inhibitory concentration values (IC50) of compounds that show appreciable inhibition of ^125 I-PYY binding are calculated by obtaining percent inhibition of ^125 I-PYY binding values at different concentrations of the test compound, and using a graphing program such as GraphPad Prism (San Diego, Calif.) to calculate the concentration of test compound that inhibits fifty-percent of ^125 I-PYY binding (Table 4). These operations are known to those skilled in the art.

| SMILES | inhibition at 3 µM |
| --- | --- |
| COc1ccc2c(c1)CCC(NC[C@H]1CC[C@H](CNS(=O)(=O)c3ccccc3Cl)CC1)C2Cc1ccccc1 (relative stereo) [Compound 66] | 99% |
| O=S(=O)(NC[C@H]1CC[C@H](CNC2CCc3cccc(Cl)c3C2Cc2ccccc2)CC1)c1ccccc1 (relative stereo) [Compound 106] | 104% |
| COc1ccc2c(c1)CCC(NC[C@H]1CC[C@H](CNS(=O)(=O)c3ccccc3F)CC1)C2Cc1ccccc1 (relative stereo) [Compound 57] | 98% |
| O=S(=O)(NCCCCNC1CCc2ccccc2C1Cc1ccccc1)c1ccc2ccccc2c1 (centres unmarked) [Compound 45] | 58% |
| O=S(=O)(NC[C@H]1CC[C@H](CNC2CCc3ccc(Cl)cc3C2Cc2ccccc2)CC1)c1ccccc1 (some centres unmarked) [Compound 104] | 97% |
| COc1ccc2c(c1)CCC(NC[C@H]1CC[C@H](CNS(=O)(=O)c3ccc4ccccc4c3)CC1)C2Cc1cccc(C(F)(F)F)c1 (some centres unmarked) [Compound 94] | 45% |
| COc1ccc2c(c1)CCC(NC[C@H]1CC[C@H](CNS(=O)(=O)c3ccc(F)cc3)CC1)C2Cc1ccccc1 (relative stereo) [Compound 58] | 91% |
| COc1ccc2c(c1)CC[C@H](NCCCCCCCNS(=O)(=O)c1ccc3ccccc3c1)[C@@H]2Cc1ccccc1 (relative stereo) [Compound 47] | 79% |
| COc1cccc(CC2c3ccc(OC)cc3CCC2NC[C@H]2CC[C@H](CNS(=O)(=O)c3ccc4ccccc4c3)CC2)c1 (some centres unmarked) [Compound 84] | 82% |
| O=S(=O)(NC[C@H]1CC[C@H](CNC2CCc3cc(F)c(F)cc3C2Cc2ccccc2)CC1)c1ccccc1 (relative stereo) [Compound 107] | 103% |
| O=S(=O)(NC[C@H]1CC[C@H](CNC2CCc3cc(F)ccc3C2Cc2ccccc2)CC1)c1c(Cl)cccc1Cl (some centres unmarked) [Compound 77] | 102% |
| COc1ccc2c(c1)CCC(NC[C@H]1CC[C@H](CNS(=O)(=O)c3cc(Cl)cc(Cl)c3)CC1)C2Cc1ccccc1 (relative stereo) [Compound 56] | 73% |
| COc1ccc2c(c1)CC[C@H](NC[C@H]1CC[C@H](CNS(=O)(=O)c3ccc4ccccc4c3)CC1)[C@@H]2Cc1ccccc1 (relative stereo) [Compound 10, rac-[1α,2α(trans)]-N-[[[[[1,2,3,4-tetrahydro-6-methoxy-1-(phenylmethyl)-2-naphthalenyl]amino]methyl]-4-cyclohexyl]methyl]2-naphthalenesulfonamide] | 96% |
| COc1ccc(CC2c3ccc(OC)cc3CCC2NC[C@H]2CC[C@H](CNS(=O)(=O)c3ccccc3)CC2)cc1 (some centres unmarked) [Compound 86] | 25% |
| O=[N+]([O-])c1ccccc1S(=O)(=O)NC[C@H]1CC[C@H](CNC2CCc3cc(Cl)ccc3C2Cc2ccccc2)CC1 (some centres unmarked) [Compound 64] | 93% |
| O=S(=O)(NC[C@H]1CC[C@H](CNC2CCc3cc(F)ccc3C2Cc2ccccc2)CC1)c1ccc(Cl)cc1Cl (some centres unmarked) [Compound 76] | 99% |

| SMILES | inhibition at 3 µM |
| --- | --- |
| COc1ccc2c(c1)CCC(NC[C@H]1CC[C@H](CNS(=O)(=O)c3ccc(S(C)(=O)=O)cc3)CC1)C2Cc1ccccc1 (relative stereo) [Compound 55] | 90% |
| O=S(=O)(NC[C@H]1CC[C@H](CNC2CCc3cc(F)ccc3C2Cc2ccccc2)CC1)c1ccccc1Br (relative stereo) [Compound 74] | 105% |
| O=S(=O)(NC[C@H]1CC[C@H](CNC2CCc3cc(F)ccc3C2Cc2ccccc2)CC1)c1ccccc1 (relative stereo) [Compound 103] | 98% |
| COc1ccc2c(c1)CC[C@H](NCc1ccc(CNS(=O)(=O)c3ccc4ccccc4c3)cc1)[C@@H]2Cc1ccccc1 (relative stereo) [Compound 49] | 60% |
| COc1ccc2c(c1)CC[C@H](NC[C@H]1CC[C@H](CNS(=O)(=O)c3cccc4ccccc34)CC1)[C@@H]2Cc1ccccc1 (relative stereo) [Compound 51] | 95% |
| COc1ccc2c(c1)C(Cc1ccccc1)C(NC[C@H]1CC[C@H](CNS(=O)(=O)c3ccccc3)CC1)CC2 (some centres unmarked) [Compound 79] | 93% |
| COc1ccc2c(c1)CCC(NC[C@H]1CC[C@H](CNS(=O)(=O)c3ccccc3[N+](=O)[O-])CC1)C2Cc1ccccc1OC (some centres unmarked) [Compound 91] | 92% |
| O=S(=O)(NC[C@H]1CC[C@H](CNC2CCc3cc(O)ccc3C2Cc2ccccc2)CC1)c1ccccc1 (some centres unmarked) [Compound 71] | 102% |
| COc1cc2c(cc1OC)C(Cc1ccccc1)C(NC[C@H]1CC[C@H](CNS(=O)(=O)c3ccccc3)CC1)CC2 (relative stereo) [Compound 108] | 99% |
| COc1ccc2c(c1)C(Cc1ccccc1)C(NC[C@H]1CC[C@H](CNS(=O)(=O)c3ccc4ccccc4c3)CC1)CC2 (relative stereo) [Compound 80] | 75% |
| COc1ccc2c(c1)CCC(NC[C@H]1CC[C@H](CNS(=O)(=O)c3ccc(Cl)cc3Cl)CC1)C2Cc1ccccc1 (some centres unmarked) [Compound 61] | 94% |
| COc1ccc2c(c1)CC[C@H](NC[C@H]1CC[C@H](CNS(=O)(=O)c3ccc4ccccc4c3)CC1)[C@@H]2c1ccccc1 (relative stereo) [Compound 34, [1α,2α(trans)]-N-[[[[[1,2,3,4-tetrahydro-6-methoxy-1-phenyl-2-naphthalenyl]amino]methyl]-4-cyclohexyl]methyl]2-naphthlenesulfonamide] | 46% |
| COc1ccc2c(c1)CC[C@H](NCCCCCNS(=O)(=O)c1ccc3ccccc3c1)[C@@H]2Cc1ccccc1 (relative stereo) [Compound 11, rac-[1α,2α(trans)]-N-[[[[[1,2,3,4-tetrahydro-6-methoxy-1-(phenylmethyl)-2-naphthalenyl]amino]-5-pentyl]2-naphthalenesulfonamide] | 95% |
| CCC[C@@H]1c2ccc(OC)cc2CC[C@@H]1NC[C@H]1CC[C@H](CNS(=O)(=O)c2ccccc2)CC1 (relative stereo) [Compound 42, rac-[1α,2α(trans)]-N-[[[[[1,2,3,4-tetrahydro-6-methoxy-1-(n-propyl)-2-naphthalenyl]amino]methyl]-4-cyclohexyl]methyl] benzenesulfonamide] | 101% |
| O=S(=O)(NC1CCC(CNC2CCc3ccccc3C2Cc2cccnc2)CC1)c1ccccc1 (centres unmarked) [Compound 112] | 95% |
| O=[N+]([O-])c1ccccc1S(=O)(=O)NC[C@H]1CC[C@H](CNC2CCc3cc(F)ccc3C2Cc2ccccc2)CC1 (relative stereo) [Compound 72] | 106% |
